The series in a line: Intravenous and buccal pharmacokinetics of Physostigmine in rats (plasma levels by HPLC with fluorimetric detector). It counts as in vivo, male Lewis rats. The following applies: rat plasma, 200 μg/kg, Physostigmine hemisulfate in normal saline. The procedure:
Lewis Rats were used to evaluate the buccal/sublingual delivery of Physostigmine. The Physostigmine drug concentration in rat plasma was determined using a conventional high pressure liquid chromatography analytical procedure which measures drug concentration by fluorimetric detector.
To determine whether Physostigmine would be absorbed by mucosa and produce a sustained plasma level, two separate groups of male Lewis rats, were administered Physostigmine hemisulfate, a salt of Physostigmine, intravenously or buccally in normal saline. The rats weighed approximately 300 g and were fasted overnight prior to dosing. All rats were anesthetized with pentobarbital (50 mg/kg) prior to dosing. The jugular vein was cannulated and attached to a syringe through 3-way stopcock for blood collections. Blood samples (1 ml) were withdrawn through the jugular cannula and replaced with an equal volume of fresh blood (37 degrees C) from separate blood donor rats after each sampling as a function of time. […]
The terminal decay rate constant (k) and the terminal half-life (t1/2) after intravenous administration was calculated by linear regression of the terminal portion of the individual sample In Cp (plasma drug concentration) versus time plot of FIG. 1.

Here are results for one molecule from patent US6264974A, “Buccal and sublingual administration of physostigmine” (priority 1998, dated 2001).

Entries after “also recorded” stand apart in the source; their conditions may differ.

`CNC(=O)Oc1ccc2c(c1)[C@]1(C)CCN(C)[C@@H]1N2C` [Physostigmine, 1,2,3,3a,8,8a-hexahydro-1,3a,8-trimethylpyrrolo[2,3-b]indol-5-ol methylcarbamate]: the half-life (0.2 mg/kg, intravenous, FIG. 1, read-out: plasma half-life (terminal half-life, t1/2)) came out at 25 min. The “plasma concentration vs. time profile” value (buccal, esophagus ligated, over eight hours (t1/2 could not be determined), FIG. 2) is recorded as “did not decay for the period of the experiment; also recorded: highly sustained”.
